Data on 3 molecules can be found in patent publication US20250281621A1, “GPC3 APTAMERS AND VARIANTS AND USE THEREOF” (Guardian Therapeutics, LLC, priority 2020, published 2025).

One series relates to Hep3B xenograft. The conditions noted are these: 30 mg/kg, oral, QD 28 days.
A further series deals with NCI-H446 xenograft. The following applies: 40 mg/kg, I.P. QD for 28 days.
The target in the next series is Glypican-3 (GPC3) (UniProt P51654;P51654 P51654:25-358,P51654:359-554). Nature of the series: assay and GPC3 source not stated; fusion does not affect GPC3 binding. The conditions noted are these: tags: recombinant GPC3 used for SELEX; source inferred for kinetic assay.

Counter-ions that a name gives are not always drawn.

Turning to `CNC(=O)c1cc(Oc2ccc(NC(=O)Nc3ccc(Cl)c(C(F)(F)F)c3)cc2)ccn1` [Sorafenib Tosylate], the “% of body weight loss (Day 28)” value in the series on Hep3B xenograft is 9.33%.

Take `CCc1c2c(nc3ccc(OC(=O)N4CCC(N5CCCCC5)CC4)cc13)-c1cc3c(c(=O)n1C2)COC(=O)[C@]3(O)CC` [Irinotecan, irinotecan]: the “% of body weight loss (Day 29)” value in the series on NCI-H446 xenograft is −5.29%.

B1: GRX51 (CpG7909-GRX49 fusion) (mixed)
mixed: TCGTCGTTTTGTCGTTTTGTCGTTCGUCAUCGGGUUGCUACCCAAGGCCAGGAGGCGAUGACG
modifications: PS DNA CpG7909 portion, 2'-OMe aptamer portion
One may read the IC50 as the concentration that gives 50% inhibition. Consider B1, for which the IC50 with Glypican-3 (GPC3) worked out at 32.7 nM.
